Patent publication US20060063784A1, “Method of using substituted pyrazolo [1,5-a] pyrimidines” (priority 2004, published 2006)
Read-outs that look alike come from different tables or passages of the source.

Assays:
[1] = tested on: 80S14 (p21-deficient) cells; experiment: Cytotoxicity assay using isogenic cell lines: IC50 in 80S14 (p21-deficient) cells, SRB; format: cell-based, human
Procedure, shortened: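 80S14 (p21-deficient) cells seeded at 12,000 cells/well overnight, then exposed 5 days at 37 °C to serial dilutions (5 pM–50 μM or 170 pg/ml–10 μg/ml). TCA-fixed, sulforhodamine B-stained, absorbance at 560 nm; IC50 taken from cytotoxicity curves versus untreated controls.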

LoVo Colon cell line = experiment: Cytotoxicity assay using LoVo colon cell line, SRB; format: cell-based; conditions: read-out: Inhibition of LoVo
Description: Cytotoxicity Assay Using LoVo Colon Cell Line: • 1. LoVo Colon cell lines were cultured in RPMI 1640 medium (Gibco/Invitrogen Life Sciences) supplemented with 10% fetal bovine serum (FBS, Gibco) and 50 μg/ml entamicin (Gibco). Cells were maintained at 37° C. under 7% CO2. • 2. Cells were seeded in 96-well microtiter plates (Corning/Costar) in a volume of 0.15 ml of growth medium (4000 cells/well). Plates were incubated at 37° C. overnight (18-24 hours). • 3. Serial dilutions of the test agent were added to each well. Dilutions were prepared in growth medium. One of two dose ranges was used: 5 pM to 20 μM or 170 pg/ml to 10 μg/ml. Cells were incubated with the test compounds for 4 days at 37° C. • 4. Surviving cells were processed using the SRB asay, as described above.
5. The drug concentration that inhibits cell proliferation by 50% relative to untreated controls (IC50) was determined from cytotoxicity curves using the LSW Toolbox graphing application.

[2] = Homo sapiens, 120 h, 80S14 p21-deficient cells, 5 days incubation, SRB, read-out: IC50 for 80SI4
[3] = Homo sapiens, 96 h, LoVo colon cells, 4 days incubation, SRB
[4] = Homo sapiens, 120 h, 80S14 (p21-deficient) cells, 5 days, SRB, class symbols, read-out: IC50 for 80S14
[5] = Homo sapiens, 96 h, Cellular activity in LoVo cell, 4 days incubation, SRB

Which IC50 [1, 2] does the source give for `CC(C)(C)CNC(=O)Nc1cccc(-c2ccnc3c(C(=O)c4cccs4)cnn23)c1` [Example 164, N-neopentyl-N′-{3-[3-(thien-2-ylcarbonyl)pyrazolo[1,5-a]pyrimidin-7-yl]phenyl}urea] here?
The IC50 was less than 1 µM.

What about the IC50 (LoVo Colon cell line; [3]) of the same compound?
Its IC50 is less than 100 nM.

For `O=C(c1cccs1)c1cnn2c(-c3cccc(N4CCCC4=O)c3)ccnc12` [Example 437, 1-{3-[3-(Thien-2-ylcarbonyl)pyrazolo[1,5-a]pyrimidin-7-yl]phenyl}pyrrolidin-2-one], which IC50 [1, 4] is on record?
Its IC50 is less than 1 µM.

And the IC50 (LoVo Colon cell line; [5])?
Its IC50 is less than 100 nM.

What does the source list for `CCN(CC)c1cccc(-c2ccnc3c(C(=O)c4cccs4)cnn23)c1` [Example 394, {7-[3-(Diethylamino)phenyl]pyrazolo[1,5-a]pyrimidin-3-yl}(thien-2-yl)methanone]?
IC50 [1, 4]: 1 to 10 µM; IC50 (LoVo Colon cell line; [5]): 100 to 1000 nM

What does the source list for `COc1cc(-c2cnn3c(-c4cccc(NC(=O)CC(C)C)c4)ccnc23)cc(OC)c1OC` [Example 467, 3-Methyl-N-{3-[3-(3,4,5-trimethoxyphenyl)pyrazolo[1,5-a]pyrimidin-7-yl]phenyl}butanamide]?
IC50 [1, 4]: < 1 µM; IC50 (LoVo Colon cell line; [5]): < 100 nM

With `O=C(CCCCl)Nc1cccc(-c2ccnc3c(C(=O)c4cccs4)cnn23)c1` [Example 346, 4-Chloro-N-{3-[3-(thien-2-ylcarbonyl)pyrazolo[1,5-a]pyrimidin-7-yl]phenyl}butanamide] as the compound, how does the IC50 [1, 4] read?
Its IC50 is 1 to 10 µM.

And the IC50 (LoVo Colon cell line; [5])?
Its IC50 is 100 to 1000 nM.

Which IC50 [1, 4] does the source give for `CCn1nnc(-c2cccc(-c3ccnc4c(-c5cc(C)cc(C)c5)cnn34)c2)n1` [Example 496, 3-(3,5-Dimethylphenyl)-7-[3-(2-ethyl-2H-tetrazol-5-yl)phenyl]pyrazolo[1,5-a]pyrimidine] here?
The IC50 was 1 to 10 µM.

And the IC50 (LoVo Colon cell line; [5])?
Its IC50 is 100 to 1000 nM.

For `Cc1ccccc1CNc1cccc(-c2ccnc3c(C(=O)c4cccs4)cnn23)c1` [Example 377, (7-{3-[(2-Methylbenzyl)amino]phenyl}pyrazolo[1,5-a]pyrimidin-3-yl)(thien-2-yl)methanone], which IC50 [1, 4] is on record?
The IC50 was 1 to 10 µM.

What about the IC50 (LoVo Colon cell line; [5]) of the same compound?
Its IC50 is 100 to 1000 nM.

Which IC50 [1, 4] does the source give for `CC(C)(C)CC(=O)Nc1cc(-c2ccnc3c(C(=O)c4cccs4)cnn23)ccc1F` [Example 355, N-{2-Fluoro-5-[3-(thien-2-ylcarbonyl)pyrazolo[1,5-a]pyrimidin-7-yl]phenyl}-3,3-dimethylbutanamide] here?
Its IC50 is less than 1 µM.

What about the IC50 (LoVo Colon cell line; [5]) of the same compound?
Its IC50 is less than 100 nM.

`CC(=O)c1cccc(-c2cnn3c(-c4cccc(NC(=O)CC(C)C)c4)ccnc23)c1` [Example 483, N-{3-[3-(3-Acetylphenyl)pyrazolo[1,5-a]pyrimidin-7-yl]phenyl}-3-methylbutanamide] was tested. Which IC50 [1, 4] did it give?
Its IC50 is 10 to 50 µM.

What about the IC50 (LoVo Colon cell line; [5]) of the same compound?
The IC50 was 1000 to 20000 nM.

`O=C(Nc1cccc(-c2ccnc3c(C(=O)c4cccs4)cnn23)c1)c1cnccn1` [Example 385, N-{3-[3-(Thien-2-ylcarbonyl)pyrazolo[1,5-a]pyrimidin-7-yl]phenyl}pyrazine-2-carboxamide] was tested. Which IC50 [1, 4] did it give?
Its IC50 is less than 1 µM.

And the IC50 (LoVo Colon cell line; [5])?
Its IC50 is less than 100 nM.

For `O=C(c1cccs1)c1cnn2c(-c3cccc(NCc4ccc(Cl)cc4)c3)ccnc12` [Example 366, (7-{3-[(4-Chlorobenzyl)amino]phenyl}pyrazolo[1,5-a]pyrimidin-3-yl)(thien-2-yl)methanone], which IC50 [1, 4] is on record?
Its IC50 is 10 to 50 µM.

What about the IC50 (LoVo Colon cell line; [5]) of the same compound?
The IC50 was 1000 to 20000 nM.

For `CC(C)NC(=O)Nc1cc(-c2ccnc3c(C(=O)c4cccs4)cnn23)ccc1F` [Example 382, N-{2-Fluoro-5-[3-(thien-2-ylcarbonyl)pyrazolo[1,5-a]pyrimidin-7-yl]phenyl}-N′-isopropylurea], which IC50 [1, 4] is on record?
Its IC50 is less than 1 µM.

What about the IC50 (LoVo Colon cell line; [5]) of the same compound?
The IC50 was less than 100 nM.

For `O=C(c1cccs1)c1cnn2c(-c3cccc(-c4nnnn4CC4CCC4)c3)ccnc12` [Example 508, (7-{3-[1-(Cyclobutylmethyl)-1H-tetraazol-5-yl]phenyl}pyrazolo[1,5-a]pyrimidin-3-yl)(thien-2-yl)methanone], which IC50 [1, 4] is on record?
The IC50 was 10 to 50 µM.

And the IC50 (LoVo Colon cell line; [5])?
The IC50 was 1000 to 20000 nM.

For `O=C(CSc1ccncc1)Nc1cccc(-c2ccnc3c(C(=O)c4cccs4)cnn23)c1` [Example 449, 2-(Pyridin-4-ylthio)-N-{3-[3-(thien-2-ylcarbonyl)pyrazolo[1,5-a]pyrimidin-7-yl]phenyl}acetamide], which IC50 [1, 4] is on record?
The IC50 was 10 to 50 µM.

And the IC50 (LoVo Colon cell line; [5])?
Its IC50 is 100 to 1000 nM.

Which results are given for `CC(C)Cn1nnc(-c2cccc(-c3ccnc4c(C(=O)c5cccs5)cnn34)c2)n1` [Example 504, {7-[3-(2-Isobutyl-2H-tetraazol-5-yl)phenyl]pyrazolo[1,5-a]pyrimidin-3-yl}(thien-2-yl)methanone]?
IC50 [1, 4]: < 1 µM; IC50 (LoVo Colon cell line; [5]): 100 to 1000 nM

How did the IC50 [1, 2] turn out when `O=C(Nc1cccc(-c2ccnc3c(C(=O)c4cccs4)cnn23)c1)OCC1CCC1` [Example 174, cyclobutylmethyl 3-[3-(thien-2-ylcarbonyl)pyrazolo[1,5-a]pyrimidin-7-yl]phenylcarbamate] was run?
The IC50 was less than 1 µM.

And the IC50 (LoVo Colon cell line; [3])?
The IC50 was less than 100 nM.

How did the IC50 [1, 4] turn out when `O=C(CCCN1CCOCC1)Nc1cccc(-c2ccnc3c(C(=O)c4cccs4)cnn23)c1` [Example 423, 4-Morpholin-4-yl-N-{3-[3-(thien-2-ylcarbonyl)pyrazolo[1,5-a]pyrimidin-7-yl]phenyl}butanamide] was run?
The IC50 was 1 to 10 µM.

What about the IC50 (LoVo Colon cell line; [5]) of the same compound?
The IC50 was 100 to 1000 nM.

With `O=C(Nc1cccc(-c2ccnc3c(C(=O)c4cccs4)cnn23)c1)c1ccccc1` [Example 284, N-{3-[3-(2-Thienylcarbonyl)pyrazolo[1,5-a]pyrimidin-7-yl]phenyl}benzamide] as the compound, how does the IC50 [1, 4] read?
Its IC50 is less than 1 µM.

And the IC50 (LoVo Colon cell line; [5])?
The IC50 was less than 100 nM.

For `Cc1ccc(-c2ccnc3c(C(=O)c4cccs4)cnn23)cc1NC(=O)OC(C)C` [Example 314, Isopropyl 2-methyl-5-[3-(2-thienylcarbonyl)pyrazolo[1,5-a]pyrimidin-7-yl]phenylcarbamate], which IC50 ([1]; Homo sapiens, 80S14, 120 h, read-out: IC50 for 80S14 (uM)) is on record?
The IC50 was less than 1 µM.

What about the IC50 (LoVo Colon cell line; Homo sapiens, LoVo, 96 h) of the same compound?
Its IC50 is less than 100 nM.

With `CC(C)=CCOC(=O)Nc1cccc(-c2ccnc3c(C(=O)c4cccs4)cnn23)c1` [Example 177, 3-methylbut-2-enyl 3-[3-(thien-2-ylcarbonyl)pyrazolo[1,5-a]pyrimidin-7-yl]phenylcarbamate] as the compound, how does the IC50 [1, 2] read?
The IC50 was 1 to 10 µM.

And the IC50 (LoVo Colon cell line; [3])?
The IC50 was less than 100 nM.

Which IC50 [1, 2] does the source give for `Cc1cc(-c2cccc(NC(=O)NC(C)C)c2)n2ncc(C(=O)c3cccs3)c2n1` [Example 207, N-isopropyl-N′-{3-[5-methyl-3-(thien-2-ylcarbonyl)pyrazolo[1,5-a]pyrimidin-7-yl]phenyl}urea] here?
The IC50 was less than 1 µM.

What about the IC50 (LoVo Colon cell line; [3]) of the same compound?
The IC50 was 100 to 1000 nM.

How did the IC50 ([1]; Homo sapiens, 80S14, 120 h, read-out: IC50 for 80SI4 (uM)) turn out when `CCCCOC(=O)Nc1cccc(-c2ccnc3c(C(=O)c4cccs4)cnn23)c1` [Example 13, butyl 3-[3-(thien-2-ylcarbonyl)pyrazolo[1,5-a]pyrimidin-7-yl]phenylcarbamate] was run?
The IC50 was less than 1 µM.

What about the IC50 (LoVo Colon cell line; Homo sapiens, LoVo, 96 h) of the same compound?
The IC50 was less than 100 nM.

For `O=C(c1cccs1)c1cnn2c(-c3cccc(NCc4cccc(Cl)c4)c3)ccnc12` [Example 365, (7-{3-[(3-Chlorobenzyl)amino]phenyl}pyrazolo[1,5-a]pyrimidin-3-yl)(thien-2-yl)methanone], which IC50 [1, 4] is on record?
The IC50 was 10 to 50 µM.

And the IC50 (LoVo Colon cell line; [5])?
The IC50 was 1000 to 20000 nM.

How did the IC50 [1, 4] turn out when `CC(C)CC(=O)Nc1cccc(-c2ccnc3c(-c4cccc(-c5ccccc5)c4)cnn23)c1` [Example 485, N-{3-[3-(1,1′-Biphenyl-3-yl)pyrazolo[1,5-a]pyrimidin-7-yl]phenyl}-3-methylbutanamide] was run?
The IC50 was 10 to 50 µM.

What about the IC50 (LoVo Colon cell line; [5]) of the same compound?
The IC50 was 1000 to 20000 nM.

How did the IC50 ([1]; 80S14 p21-deficient cells, 5 days incubation, SRB, read-out: IC50 for 80SI4) turn out when `CCCCC(=O)Nc1cccc(-c2ccnc3c(C(=O)c4cccs4)cnn23)c1` [Example 152, N-3{3-[3-(thien-2-ylcarbonyl)pyrazolo[1,5-a]pyrimidin-7-yl]phenyl}pentanamide] was run?
Its IC50 is less than 1 µM.

What about the IC50 (LoVo Colon cell line; LoVo colon cells, 4 days incubation, SRB) of the same compound?
Its IC50 is less than 100 nM.

Which IC50 ([1]; 80S14 (p21-deficient) cells, 5 days, SRB, class symbols, read-out: IC50 for 80S14) does the source give for “{7-[3-(1-Ethyl-1H-pyrazol-3-yl)phenyl]pyrazolo[1,5-a]pyrimidin-3-yl (thien-2-yl)methanone [Example 518]” here?
Its IC50 is less than 1 µM.

What about the IC50 (LoVo Colon cell line; Cellular activity in LoVo cell, 4 days incubation, SRB) of the same compound?
The IC50 was less than 100 nM.

With `Cc1cc(-c2cccc(NC(=O)Cc3cccs3)c2)n2ncc(C(=O)c3cccs3)c2n1` [Example 205, N-{3-[5-methyl-3-(thien-2-ylcarbonyl)pyrazolo[1,5-a]pyrimidin-7-yl]phenyl}-2-thien-2-ylacetamide] as the compound, how does the IC50 [1, 2] read?
Its IC50 is 1 to 10 µM.

And the IC50 (LoVo Colon cell line; [3])?
The IC50 was 100 to 1000 nM.

What does the source list for `Cc1cnc2c(C(=O)c3cccs3)cnn2c1-c1cccc(NC(=O)OC(C)C)c1` [Example 211, isopropyl 3-[6-methyl-3-(thien-2-ylcarbonyl)pyrazolo[1,5-a]pyrimidin-7-yl]phenylcarbamate]?
IC50 [1, 2]: 10 to 50 µM; IC50 (LoVo Colon cell line; [3]): 1000 to 2000 nM

With `O=C(CCc1cccnc1)Nc1cccc(-c2ccnc3c(C(=O)c4cccs4)cnn23)c1` [Example 448, 3-Pyridin-3-yl-N-{3-[3-(thien-2-ylcarbonyl)pyrazolo[1,5-a]pyrimidin-7-yl]phenyl}propanamide] as the compound, how does the IC50 [1, 4] read?
Its IC50 is 10 to 50 µM.

What about the IC50 (LoVo Colon cell line; [5]) of the same compound?
Its IC50 is 100 to 1000 nM.

With `C=C(C)CNc1cccc(-c2ccnc3c(C(=O)c4cccs4)cnn23)c1` [Example 434, (7-{3-[(2-Methylprop-2-enyl)amino]phenyl}pyrazolo[1,5-a]pyrimidin-3-yl)(thien-2-yl)methanone] as the compound, how does the IC50 [1, 4] read?
Its IC50 is 1 to 10 µM.

What about the IC50 (LoVo Colon cell line; [5]) of the same compound?
The IC50 was 100 to 1000 nM.
